Test results reported in patent US12180174B2, “A2-73 crystalline polymorph compositions of matter and methods of use thereof” (ANAVEX LIFE SCIENCES CORP., priority 2018, dated 2024).

Tests used:
[1] = test system: HEK293 cells stably expressing a GFP-LC3B reporter construct; test: GFP-LC3B puncta, confocal fluorescence microscopy; format: cell-based, human; settings: 1 μM, BafiA1
Procedure: Next, the Western blot experiments were complemented by direct visualization of the extent of autophagosome appearance in HEK293 cells. To do so, ANAVEX2-73 (1 μM) was applied to HEK293 cells stably expressing a GFP-LC3B reporter construct. This cell model allows direct monitoring of the accumulation of LC3-I I-positive autophagosomal structures upon BafiAi supplementation by confocal fluorescence microscopy.
(§1) Cell culture and microscopy. HeLa and HEK293A cells were cultured in DMEM (Invitrogen, Carlsbad, CA, USA, 41965062) supplemented with active FBS (Life Technologies GmbH, Carlsbad, CA, USA, 10270106), 1×ABAM (Invitrogen, 15240-062) and 1 mM sodium pyruvate (Invitrogen, 1136-088). After medium change, the cells were treated for 2 h with 10, 1, and 0.1 μM ANAVEX2-73 and PRE-084 (Tocris, Bristol, UK, 0589), respectively; ANAVEX2-73 was provided by ANAVEX Life Sciences Corp, New York, NY, USA. […] Proteins were detected by chemiluminescence using the Amersham Imager 600 (GE). Confocal fluorescence microscopical analyses of HEK293A cells stably expressing GFP-LC3B were performed with the laser scanning microscope LSM 710 (Zeiss, Oberkochen).
Confocal fluorescence microscopical analyses of HEK293A cells stably expressing GFP-LC3B were performed with the laser scanning microscope LSM 710 (Zeiss, Oberkochen).

ULK1 = ULK1 serine 555 phosphorylation, Western blot; format: cell-based, human; settings: 1 μM; HeLa cells
Source text: Activation of the serine/threonine protein kinase ULK1 (unc-51-like kinase 1) via phosphorylation at serine 555 indicates stimulation of the canonical autophagy pathway. […] It has to be mentioned that this activating ULK1 phosphorylation can be inhibited by mTOR as well as stimulated via AMPK kinase. Both are basal physiological sensors of nutritional conditions and key signal transducers of canonical autophagy stimulation. ULK1 is in fact the signal mediating the induction of the formation of the phagophore during the autophagy process and, therefore, a central promoter of autophagy. ULK1 itself functions in a complex with at least three protein partners: FI P200 (focal adhesion kinase family interacting protein of 200 kDa), ATG (autophagy-related protein) 13 (ATG13), and ATG101.
as §1, with “1136-088).” for “1136-088). After medium change, the cells were treated for 2 h with 10, 1, and 0.1 μM ANAVEX2-73 and PRE-084 (Tocris, Bristol, UK, 0589), respectively; ANAVEX2-73 was provided by ANAVEX Life Sciences Corp, New York, NY, USA.”

C. elegans [2] = test: GFP-LGG-1-II autophagic flux in worms, Western blot; format: in vivo; settings: 80 μM; BafiA1 or DMSO for 6 h
Source text: Autophagy modulation by ANAVEX2-73 in vitro and its impact on some key autophagy network factors prompted the inventors to further analyze the impact of Sig-1 R activation by ANAVEX2-73 on autophagy and proteostasis also in vivo, employing the C. elegans model. The nematode ortholog of the human Sig-1 R is W08F4.3 and is expressed in several tissues, including the muscular system. To monitor autophagic flux in vivo the inventors employed a GFP-LGG-1 reporter worm strain. LGG-1 is a nematode ortholog of the mammalian GABARAP, and the GFP-tagged protein can be used to evaluate autophagic activity by Western blotting as well as confocal fluorescence microscopy. Employing Western blotting, the levels of GFP-LGG-1-II plus BafiA1 and without BafiA1 were analyzed, analogously to the flux measurements in HeLa cells as shown in FIG. 37.
C. elegans strains, maintenance, methods. C. elegans were maintained according to standard procedures on nematode growth medium (NGM) plates seeded with HB101 E. coli. […]
For analysis of autophagic activity, synchronous nematodes expressing GFP::LGG-1 were cultivated at 20° C. […] Thereafter worms were lysed for Western blotting or analyzed by confocal fluorescence microscopy.
Western blot analyses were performed as described previously. […] Proteins were detected by chemiluminescence using the Fuji LAS-3000 dark box (Fujifilm, Dusseldorf).

C. elegans [3] = test: GFP-LGG-1 puncta in worms, confocal fluorescence microscopy; format: in vivo; settings: plus/minus BafiA1; head regions of worms
Source text: To further substantiate this finding we used confocal fluorescence microscopy to directly visualize autophagosomal structures, as indicated by GFP-LGG-1-positive puncta. […] In fact, a significant increase was found; autophagic flux as observed in vivo is induced by ANAVEX2-73 by approx. 2.5-fold (FIG. 37B; The number of GFP-positive autophagosomal structures (indicated by arrowheads) were counted in three independent experiments and in each experiment in at least 8-11 respective head regions of worms), which is consistent with the Western blot analysis (FIG. 37A).
C. elegans strains, maintenance, methods. C. elegans were maintained according to standard procedures on nematode growth medium (NGM) plates seeded with HB101 E. coli. The following strains were employed in this study: GFP::LGG-1 (ex[PIggI::IggI::GFP]/pRF4; maintained at 20° C.; and the strain CL2006 (dvls2 [pCL12(unc-54/human A13 peptide 1-42)+pRF4]), maintained at 15° C.
For analysis of autophagic activity, synchronous nematodes expressing GFP::LGG-1 were cultivated at 20° C. At first day of adulthood, worms were transferred to 80 μM ANAVEX2-73 or control M9 liquid culture medium for 2 h and subsequently were treated with Bafilomycin AI or DMSO (control) for 4-6 h. Thereafter worms were lysed for Western blotting or analyzed by confocal fluorescence microscopy.

Sig-1 R = Sig-1 R (Homo sapiens, UniProt Q99720); settings: cited from earlier work
AD = settings: Phase 2a trial of patients; cited from earlier work

Chain of Sig-1 R (Q99720 whole entry, species assumed): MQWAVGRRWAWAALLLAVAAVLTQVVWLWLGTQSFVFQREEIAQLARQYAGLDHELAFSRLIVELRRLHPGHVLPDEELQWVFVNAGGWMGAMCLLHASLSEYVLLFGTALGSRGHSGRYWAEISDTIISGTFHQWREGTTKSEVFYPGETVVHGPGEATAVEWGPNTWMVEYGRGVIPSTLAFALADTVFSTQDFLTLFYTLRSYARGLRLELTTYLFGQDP

Structure (SMILES): CN(C)CC1CCOC1(c1ccccc1)c1ccccc1.Cl (stereo not shown) [ANAVEX2-73, tetrahydro-N,N-dimethyl-2,2-diphenyl-3-furanmethanamine hydrochloride]
- LC3-II-positive puncta and autophagic flux [1]: overall increased number of LC3-II-positive puncta and autophagic flux
- ULK1 serine 555 phosphorylation (ULK1): up to 2 fold
- enhancement of autophagic flux (GFP-LGG-1-II, Western blot) (C. elegans [2]): ~2 fold
- induction of autophagic flux (GFP-LGG-1 puncta) (C. elegans [3]): approx. 2.5 fold
- affinity for Sig-1 R (Sig-1 R): low micromolar range
- improvement against exploratory endpoints (AD): concentration-dependent improvement against exploratory endpoints
- safety profile (AD): favorable safety profile
